Measured values reported in ChEMBL document CHEMBL5604063, “ASAP - DENV-2 NS2B-NS3 protease fluorescence dose response” (2024).
“And” between values parts separate entries of the source, which are not always exact repeats. Identical values can stand only once.

Columns and labels:
Genome polyprotein [1] = molecular target: T1, Genome polyprotein (dengue virus type 2, UniProt P29990); format: functional, Thailand/16681/1984
Genome polyprotein [2] = molecular target: T1, Genome polyprotein; format: functional, Thailand/16681/1984; remark: listed apart in the source

T1 sequence (P29990 1346-1475 limits assumed): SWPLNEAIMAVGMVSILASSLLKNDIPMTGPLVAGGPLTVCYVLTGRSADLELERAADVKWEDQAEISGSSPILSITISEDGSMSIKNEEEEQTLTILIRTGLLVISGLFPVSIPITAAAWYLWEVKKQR
T1 sequence (P29990 1476-2093 limits assumed): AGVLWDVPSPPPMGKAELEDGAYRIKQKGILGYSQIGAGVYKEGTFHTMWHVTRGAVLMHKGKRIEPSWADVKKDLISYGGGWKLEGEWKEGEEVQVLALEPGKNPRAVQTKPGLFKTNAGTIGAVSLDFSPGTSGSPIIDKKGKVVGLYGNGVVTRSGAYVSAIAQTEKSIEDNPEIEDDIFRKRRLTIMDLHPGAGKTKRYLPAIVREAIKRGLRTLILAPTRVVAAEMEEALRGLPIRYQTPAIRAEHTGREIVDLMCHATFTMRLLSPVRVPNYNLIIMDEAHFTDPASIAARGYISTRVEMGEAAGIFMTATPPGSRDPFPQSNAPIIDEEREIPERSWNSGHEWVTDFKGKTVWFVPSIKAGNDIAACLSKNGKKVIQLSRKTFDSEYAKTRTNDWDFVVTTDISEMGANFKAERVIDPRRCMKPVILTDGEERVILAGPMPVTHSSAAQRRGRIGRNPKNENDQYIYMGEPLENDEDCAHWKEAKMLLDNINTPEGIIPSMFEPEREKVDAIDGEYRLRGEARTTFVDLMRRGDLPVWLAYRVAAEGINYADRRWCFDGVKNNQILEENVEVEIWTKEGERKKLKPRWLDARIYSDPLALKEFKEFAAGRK

| Structure (SMILES) | IC50 (Genome polyprotein [1]) | IC50 (Genome polyprotein [2]) |
| --- | --- | --- |
| N#C[C@]1(Nc2ccc3c(c2)CNC3)C(=O)Nc2ccccc21 | > 100 µM | > 99.5 µM |
| CC(C)c1cc(-c2ccc3[nH]c(C(=O)O)cc3c2)cc(S(N)(=O)=O)c1 | > 100 µM | > 99.5 µM |
| CCc1cc(C(=O)Nc2ccc3c(c2)CNC3)sc1-c1ccc(Cl)cc1 | > 100 µM | > 99.5 µM |
| CC(C)(C)OC(=O)NCc1cc(NC(=O)c2cc(Cl)cc(NC(=O)OCc3ccccc3)c2)cc(-c2nn[nH]n2)c1 | 10.7 µM | 7.46 µM |
| NCCCCc1ccc(NC(=O)c2cc(Cl)cc3[nH]ncc23)cc1 | > 100 µM | > 99.5 µM |
| Cc1c(C(=O)Nc2cc(CCCN)ccn2)cc(C2CCC2)n1C | > 100 µM | > 99.5 µM |
| O=C(Nc1ccc2c(c1)CNCC2)c1cc(Cl)cc2[nH]ncc12 | > 100 µM | > 99.5 µM |
| Cc1c(C(=O)Nc2cc(CCCN)ccn2)cc(C(C)C)n1C | > 100 µM | > 99.5 µM |
| O=C(O)c1cc2cc(-c3cccc([C@H]4CNCCO4)c3)ccc2[nH]1 | > 100 µM | > 99.5 µM |
| CC(C)Cc1nc2c(C(=O)Nc3ccc4c(c3)CNC4)cc(Br)cc2[nH]1 | > 100 µM | 56.2 µM |
| O=C(O)Cc1c[nH]c2cc(-c3cc(Cl)cc(NC(=O)OCc4ccccc4)c3)ccc12 | 9.67 µM | 13.3 µM |
| CC(C)(C)c1cc(Br)cc(C(=O)Nc2ccc3c(c2)CNC3)c1 | > 100 µM | > 99.5 µM |
| O=C(Nc1ccc2c(c1)CNC2)c1cc(Cl)cc(-n2cccc2)c1 | > 100 µM | > 99.5 µM |
| Cc1oc2nc(-c3cc(Cl)cc(NC(=O)OCc4ccccc4)c3)ccc2c1C(=O)O | 13.7 µM | 16.6 µM |
| CN1Cc2ccc(NC(=O)c3cc(Cl)cc4[nH]ncc34)cc2C1 | > 100 µM | > 99.5 µM |
| Cc1cc(CN)cc(NC(=O)c2cc(Cl)cc3[nH]ncc23)c1 | 85.4 µM | 98.3 µM |
| Cc1cc(NC(=O)c2cc(C3CC3)n(C)c2C)ncc1S(N)(=O)=O | > 100 µM | > 99.5 µM |
| O=C(O)C[C@H]1CN(c2ccc(-c3cc(Cl)cc(NC(=O)OCc4ccccc4)c3)cn2)CCO1 | 22.2 µM | 35.2 µM |
| CC(C)NC(=O)[C@H](Nc1ccc2c(c1)CNC2)c1cc(Cl)cc2[nH]ncc12 | 96.5 µM and 41.2 µM and > 100 µM and 26.4 µM | 64 µM and 37.2 µM and 98.4 µM |
| O=C(Nc1ccc2c(c1)CNC2)c1cc(Br)cc2ccccc12 | > 100 µM | > 99.5 µM |
| NCCc1ccc(NC(=O)c2cc(Cl)cc3[nH]ncc23)cc1 | > 100 µM | > 99.5 µM |
| Cc1c(C(=O)NCc2ccc(CN)cc2)cc(C2CC2)n1C | > 100 µM | > 99.5 µM |

| Structure (SMILES) | IC50 (Genome polyprotein [1]) | IC50 (Genome polyprotein [2]) |
| --- | --- | --- |
| O=C(Nc1cc(Cl)cc(-c2cnn(Cc3ccc(C(=O)O)cc3)c2)c1)OCc1ccccc1 | 8.1 µM | 18.2 µM |
| NCc1cc(NC(=O)c2cc(Cl)cc(NC(=O)OCc3ccccc3)c2)cc(C2=CC[C@H](C(=O)O)CC2)c1 | > 100 µM | > 99.5 µM |
| C=C1C[C@H](c2cc(Cl)cc(NC(=O)OCc3ccccc3)c2)[C@@H](c2cccc(-c3nn[nH]n3)c2)C1 | 5.18 µM | 6.29 µM |
| O=C(Nc1ccc2c(c1)CNC2)c1cc(Cl)cc(C2CC2)c1 | > 100 µM | > 99.5 µM |
| NCc1cc(NC(=O)c2cc(Cl)cc(NC(=O)OCc3ccccc3)c2)cc(-c2csc(CC(=O)O)c2)c1 | > 100 µM | 64.7 µM |
| O=C(Nc1ccc2c(c1)CNC2)c1cc(Cl)cc2c1CCC2 | > 100 µM | > 99.5 µM |
| Cc1c(C(=O)Nc2cc(-c3ccccn3)c(Br)cn2)cc(C2CC2)n1C | > 100 µM | > 99.5 µM |
| O=C(O)c1cc2cc(-c3cc(Cl)cc4ncccc34)ccc2[nH]1 | 50.9 µM | 41.5 µM |
| O=C(O)c1cc2cccc(Cc3c[nH]c4ccc(Cl)cc34)c2[nH]1 | 21.6 µM | 52.1 µM |
| O=C(Nc1ccc2c(c1)CNC2)c1n[nH]c(=O)c2ccccc12 | > 100 µM | 36.8 µM |
| O=C1OCc2ccc(NC(=O)c3cc(Cl)cc4[nH]ncc34)cc21 | > 100 µM | > 99.5 µM |
| Clc1ccc2[nH]cc(Cc3ccc4c(c3)CNC4)c2c1 | > 100 µM | > 99.5 µM |
| O=C(Nc1ccc2c(c1)CNC2)c1n[nH]c2ncc(Br)cc12 | > 100 µM | > 99.5 µM |
| Cc1c(C(=O)Nc2cc(-c3cnn(C)c3)ccn2)cc(C2CC2)n1C | > 100 µM | > 99.5 µM |
| N#Cc1cc(-c2ccc3[nH]c(C(=O)O)cc3c2)c2nc[nH]c2c1 | > 100 µM | > 99.5 µM |
| CCCc1sc(C(=O)Nc2ccc3c(c2)CNC3)cc1CC | > 100 µM | > 99.5 µM |
| Cc1c(C(=O)Nc2cc(C(N)=O)c3ccccc3n2)cc(C2CC2)n1C | > 100 µM | > 99.5 µM |
| O=C(Nc1ccc2c(c1)CNC2)c1ccccn1 | > 100 µM | > 99.5 µM |
| N#Cc1ccc(Cl)c(C(=O)Nc2ccc3c(c2)CNC3)c1 | > 100 µM | > 99.5 µM |
| Cc1c(C(=O)Nc2nccc3c2CNCC3)cc(C2CC2)n1C | > 100 µM | > 99.5 µM |
| O=C(Nc1ccc2c(c1)CNC2)c1cc(Br)cc2[nH]c(-c3ccccc3)nc12 | 5.95 µM and 6.13 µM | 2.73 µM and 2.34 µM |
| O=C(O)c1nc(Cc2c[nH]c3ccc(Cl)cc23)c2ccccn12 | > 100 µM | > 99.5 µM |

| Structure (SMILES) | IC50 (Genome polyprotein [1]) | IC50 (Genome polyprotein [2]) |
| --- | --- | --- |
| Cc1cc(CC(=O)O)ccc1Cc1c[nH]c2ccc(Cl)cc12 | > 100 µM | > 99.5 µM |
| O=C(Nc1ccc2c(c1)CNC2)c1ccnc(CO)c1 | > 100 µM | > 99.5 µM |
| Cc1c(C(=O)Nc2cc(C(=O)N(C)C)ccn2)cc(C2CC2)n1C | > 100 µM | > 99.5 µM |
| NCc1cc(NC(=O)c2cc(Cl)cc(NC(=O)OCc3ccccc3)c2)cc(-c2cccc(CC(=O)O)c2)c1 | > 100 µM | > 99.5 µM |
| O=C(Nc1ccc([C@H]2CCNC2)cc1)c1cc(Cl)cc2[nH]ncc12 | 97.3 µM | 87.8 µM |
| C=CC[C@H](Nc1ccc2c(c1)CNC2)c1cc(Cl)cc2[nH]ncc12 | > 100 µM | 14 µM and 53.1 µM |
| O=C(Nc1ccc2c(c1)CNC2)c1cccnc1 | > 100 µM | > 99.5 µM |
| O=C(O)c1cc2cc(-c3cccc([C@H]4COCCN4)c3)ccc2[nH]1 | > 100 µM | > 99.5 µM |
| CC(C)c1cc(Br)cc(C(=O)Nc2ccc3c(c2)CNC3)c1 | > 100 µM | > 99.5 µM |
| O=C(O)c1cc2cc(-c3cc(Cl)c4[nH]c(=O)oc4c3)ccc2[nH]1 | 63.2 µM | 47.3 µM |
| O=C(Nc1ccc2c(c1)CNC2)c1cccc2[nH]ncc12 | > 100 µM | > 99.5 µM |
| N[C@H]1CC[C@H](c2ccc(NC(=O)c3cc(Cl)cc4[nH]ncc34)cc2)C1 | > 100 µM | > 99.5 µM |
| CNC(=O)[C@]1(Nc2ccc3c(c2)CNC3)C(=O)Nc2ccccc21 | > 100 µM | > 99.5 µM |
| Cc1ccc(C(C)C)c(C(=O)Nc2ccc3c(c2)CNC3)c1 | > 100 µM | > 99.5 µM |
| O=C(Nc1ccc2c(c1)CNC2)c1cc(Br)cc2c1OCO2 | > 100 µM | > 99.5 µM |
| O=C(O)COc1cc2c(cc1Cc1c[nH]c3ccc(Cl)cc13)OCO2 | 89 µM | > 99.5 µM |
| NCCCc1ccnc(NC(=O)c2csc(C3CC3)n2)c1 | > 100 µM | > 99.5 µM |
| O=C(O)c1nccn2ncc(Cc3c[nH]c4ccc(Cl)cc34)c12 | > 100 µM | > 99.5 µM |
| Cc1ccc(-c2cc(CN)cc([C@@H]3C[C@H]3c3cc(Cl)cc(NC(=O)OCc4ccccc4)c3)c2)cn1 | > 100 µM | 31.5 µM |
| O=C(Nc1ccc2c(c1)CNC2)[C@H]1CCc2ccccc21 | > 100 µM | > 99.5 µM |
| O=C(Nc1ccc2c(c1)CNC2)c1ccncc1 | > 100 µM | > 99.5 µM |
| COC(=O)c1cc(Br)cc2c(Cc3ccc(-c4nnn[nH]4)cc3)c[nH]c12 | 13.6 µM | 20.3 µM |

| Structure (SMILES) | IC50 (Genome polyprotein [1]) | IC50 (Genome polyprotein [2]) |
| --- | --- | --- |
| O=C1Cc2cc(NC(=O)c3cc(Cl)cc4[nH]ncc34)ccc2N1 | > 100 µM | > 99.5 µM |
| O=C(Nc1ccc2c(c1)OCO2)c1cc(Cl)cc2[nH]ncc12 | > 100 µM | > 99.5 µM |
| Cc1c(C(=O)O)sc2ncc(Cc3c[nH]c4ccc(Cl)cc34)cc12 | 25.3 µM | 46.7 µM |
| O=C(Nc1ccc(C2CNC2)cc1)c1cc(Cl)cc2[nH]ncc12 | > 100 µM | > 99.5 µM |
| CNC(=O)[C@]1(Nc2ccc3c(c2)CNC3)CCc2ccc(Cl)cc21 | > 100 µM | > 99.5 µM |
| CCc1nc2c(C(=O)Nc3ccc4c(c3)CNC4)cc(Br)cc2[nH]1 | 25.4 µM and > 100 µM | 24.7 µM |
| Clc1ccc2nc(C3CCOCC3)n(Cc3ccc4c(c3)CNC4)c2c1 | > 100 µM | > 99.5 µM |
| CC(C)c1nc2cc(Cl)ccc2n1Cc1ccc(-c2nn[nH]n2)cc1 | > 100 µM | > 99.5 µM |
| Nc1ccc(NC(=O)c2cc(Cl)cc3[nH]ncc23)cn1 | > 100 µM | > 99.5 µM |
| O=C(Nc1ccc2c(c1)C[C@H](O)C2)c1cc(Cl)cc2[nH]ncc12 | > 100 µM | > 99.5 µM |
| CNc1c(-c2cc(Cl)cc(C3CC3)c2)nc2cc(C(=O)O)ccn12 | > 100 µM | > 99.5 µM |
| O=C(O)c1nn(-c2ccccc2)cc1Cc1c[nH]c2ccc(Cl)cc12 | 61 µM | 56.5 µM |
| Cc1c(C(=O)Nc2cc(C#N)c3ccccc3n2)cc(C2CC2)n1C | > 100 µM | > 99.5 µM |
| O=C(Nc1cc(Cl)cc(-c2cc(NCc3ccccc3)c(C(=O)O)cn2)c1)OCc1ccccc1 | 5.35 µM | 7.58 µM |
| CNc1c(-c2cc(Cl)cc(C3CC3)c2)nc2cccc(C(=O)O)n12 | > 100 µM | > 99.5 µM |
| N#Cc1cccc(C[C@H](O)c2cc(Cl)cc(NC(=O)OCc3ccccc3)c2)c1 | > 100 µM | > 99.5 µM |
| O=C(Nc1ccc(C2CCNCC2)cc1)c1cc(Cl)cc2[nH]ncc12 | > 100 µM | > 99.5 µM |
| Cc1cc(-c2ccc3[nH]c(C(=O)O)cc3c2)c2cc[nH]c(=O)c2c1 | > 100 µM | > 99.5 µM |
| Cn1cc(-c2cc(CN)cc([C@@H]3C[C@H]3c3cc(Cl)cc(NC(=O)OCc4ccccc4)c3)c2)cn1 | 51 µM | 42 µM |
| Cc1oc(C2CC2)nc1C(=O)Nc1cc(CCCN)ccn1 | > 100 µM | > 99.5 µM |
